≈ marks a conversion by molar mass, not a printed value. Where “and” joins values, the source holds several entries; their conditions need not be identical. Equal values may be shown once.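 Method: 48-hour compound exposure of cells in 96-well plates, five concentrations, linear interpolation of endpoints. Abbreviation: GI50, concentration required for 50% inhibition of growth. The concentration for full growth arrest is given as TGI.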
How the values were obtained:
Experiment in all cases: inhibition of tumour cell growth, NCI panel, 48 h
EKVX NSCLC = system: EKVX NSCLC
COLO 205 colon = system: COLO 205 colon
MDA-N = system: MDA-N
MDA-MB-231 breast = system: MDA-MB-231 breast
786-0 renal = system: 786-0 renal
NCI-H522 lung = system: NCI-H522 lung
T-47D breast = system: T-47D breast
SK-MEL-2 melanoma = system: SK-MEL-2 melanoma
HCT-116 colon = system: HCT-116 colon
CAKI-1 renal = system: CAKI-1 renal
SW-620 colon = system: SW-620 colon
DU-145 prostate = system: DU-145 prostate
NCI-H23 lung = system: NCI-H23 lung
MOLT-4 leukemia = system: MOLT-4 leukemia
SF-539 CNS = system: SF-539 CNS
OVCAR-5 ovarian = system: OVCAR-5 ovarian
UACC-257 melanoma = system: UACC-257 melanoma
HOP-62 NSCLC = system: HOP-62 NSCLC
UACC-62 melanoma = system: UACC-62 melanoma
HS 578T breast = system: HS 578T breast
MCF7 breast = system: MCF7 breast
OVCAR-4 ovarian = system: OVCAR-4 ovarian
LOX IMVI melanoma = system: LOX IMVI melanoma
PC-3 prostate = system: PC-3 prostate
HCT-15 colon = system: HCT-15 colon
K-562 leukemia = system: K-562 leukemia
NCI-H226 lung = system: NCI-H226 lung
U251 CNS = system: U251 CNS
SNB-19 CNS = system: SNB-19 CNS
RXF 393 renal = system: RXF 393 renal
SK-MEL-28 melanoma = system: SK-MEL-28 melanoma
OVCAR-3 ovarian = system: OVCAR-3 ovarian
ACHN renal = system: ACHN renal
SR leukemia = system: SR leukemia
HCC-2998 colon = system: HCC-2998 colon
HL-60(TB) leukemia = system: HL-60(TB) leukemia
A549 NSCLC = system: A549 NSCLC
UO-31 renal = system: UO-31 renal
BT-549 breast = system: BT-549 breast
TK-10 renal = system: TK-10 renal
MALME-3M melanoma = system: MALME-3M melanoma
SF-295 CNS = system: SF-295 CNS
IGROV1 ovarian = system: IGROV1 ovarian
SK-MEL-5 melanoma = system: SK-MEL-5 melanoma
CCRF-CEM leukemia = system: CCRF-CEM leukemia
RPMI-8226 leukemia = system: RPMI-8226 leukemia
M14 melanoma = system: M14 melanoma
HT29 colon = system: HT29 colon
SN12C renal = system: SN12C renal
SF-268 CNS = system: SF-268 CNS
MDA-MB-435 = system: MDA-MB-435
SK-OV-3 ovarian = system: SK-OV-3 ovarian
A498 renal = system: A498 renal
NCI-H460 lung = system: NCI-H460 lung
HOP-92 NSCLC = system: HOP-92 NSCLC
KM12 colon = system: KM12 colon
SNB-75 CNS = system: SNB-75 CNS
OVCAR-8 ovarian = system: OVCAR-8 ovarian

## CC(=O)/C(C=Nc1c(C)n(C)n(C)c1=O)=C(/O)c1ccccc1
EKVX NSCLC
  TGI: > 50 µM
COLO 205 colon
  TGI: > 50 µM
MDA-N
  TGI: > 50 µM
MDA-MB-231 breast
  TGI: > 50 µM
786-0 renal
  TGI: > 50 µM
NCI-H522 lung
  TGI: > 50 µM
T-47D breast
  TGI: > 50 µM
SK-MEL-2 melanoma
  TGI: > 50 µM
HCT-116 colon
  TGI: > 50 µM
CAKI-1 renal
  TGI: > 50 µM
SW-620 colon
  TGI: > 50 µM
DU-145 prostate
  TGI: > 50 µM
NCI-H23 lung
  TGI: > 50 µM
MOLT-4 leukemia
  TGI: > 50 µM
SF-539 CNS
  TGI: > 50 µM
OVCAR-5 ovarian
  TGI: > 50 µM
UACC-257 melanoma
  TGI: > 50 µM
HOP-62 NSCLC
  TGI: > 50 µM
UACC-62 melanoma
  TGI: > 50 µM
HS 578T breast
  TGI: > 50 µM
MCF7 breast
  TGI: > 50 µM
OVCAR-4 ovarian
  TGI: > 50 µM
LOX IMVI melanoma
  TGI: > 50 µM
PC-3 prostate
  TGI: > 50 µM
HCT-15 colon
  TGI: > 50 µM
K-562 leukemia
  TGI: > 50 µM
NCI-H226 lung
  TGI: > 50 µM
U251 CNS
  TGI: > 50 µM
SNB-19 CNS
  TGI: > 50 µM
RXF 393 renal
  TGI: > 50 µM
SK-MEL-28 melanoma
  TGI: > 50 µM
OVCAR-3 ovarian
  TGI: > 50 µM
ACHN renal
  TGI: > 50 µM
SR leukemia
  TGI: > 50 µM
HCC-2998 colon
  TGI: > 50 µM
HL-60(TB) leukemia
  TGI: > 50 µM
A549 NSCLC
  TGI: > 50 µM
UO-31 renal
  TGI: > 50 µM
BT-549 breast
  TGI: > 50 µM
TK-10 renal
  TGI: > 50 µM
MALME-3M melanoma
  TGI: > 50 µM
SF-295 CNS
  TGI: > 50 µM
IGROV1 ovarian
  TGI: > 50 µM
SK-MEL-5 melanoma
  TGI: > 50 µM
CCRF-CEM leukemia
  TGI: > 50 µM
RPMI-8226 leukemia
  TGI: > 50 µM
M14 melanoma
  TGI: > 50 µM
HT29 colon
  TGI: > 50 µM
SN12C renal
  TGI: > 50 µM
SF-268 CNS
  TGI: > 50 µM
MDA-MB-435
  TGI: > 50 µM
SK-OV-3 ovarian
  TGI: > 50 µM
A498 renal
  TGI: > 50 µM
NCI-H460 lung
  TGI: > 50 µM
HOP-92 NSCLC
  TGI: > 50 µM

## COc1cccc2c1C(=O)c1c(O)c3c(c(O)c1C2=O)CC(O)(C(=O)CO)CC3OC1CC(N)C(O)C(C)O1 (centres undefined)
EKVX NSCLC
  GI50: 75 µg/mL (≈ 138 µM)
  TGI: 75 µg/mL
COLO 205 colon
  GI50: 9.99 µg/mL and 25.6 µg/mL
  TGI: 75 µg/mL and > 150 µg/mL
MDA-N
  GI50: 37.5 µg/mL and 69.1 µg/mL
  TGI: 75 µg/mL and > 150 µg/mL
MDA-MB-231 breast
  GI50: 44.1 µg/mL and 79.3 µg/mL
  TGI: 75 µg/mL and > 150 µg/mL
786-0 renal
  GI50: 6.54 µg/mL and 10.4 µg/mL
  TGI: 75 µg/mL and > 150 µg/mL
NCI-H522 lung
  GI50: 4.07 µg/mL (≈ 7.49 µM)
  TGI: 75 µg/mL
T-47D breast
  GI50: 7.53 µg/mL and 54.8 µg/mL
  TGI: 73.9 µg/mL and > 150 µg/mL
SK-MEL-2 melanoma
  GI50: 24.1 µg/mL and 44.3 µg/mL
  TGI: 75 µg/mL and 138 µg/mL
HCT-116 colon
  GI50: 7.26 µg/mL and 17.4 µg/mL
  TGI: 75 µg/mL and > 150 µg/mL
CAKI-1 renal
  GI50: 16.3 µg/mL and 64 µg/mL
  TGI: 75 µg/mL and > 150 µg/mL
SW-620 colon
  GI50: 7.14 µg/mL and 21.2 µg/mL
  TGI: 75 µg/mL and > 150 µg/mL
DU-145 prostate
  GI50: 15.9 µg/mL and 71 µg/mL
  TGI: 75 µg/mL and > 150 µg/mL
NCI-H23 lung
  GI50: 11.3 µg/mL and 49.1 µg/mL
  TGI: 75 µg/mL and > 150 µg/mL
MOLT-4 leukemia
  GI50: 1.13 µg/mL and 1.46 µg/mL
SF-539 CNS
  GI50: 38.3 µg/mL and 18.8 µg/mL
  TGI: 75 µg/mL and 94.8 µg/mL
OVCAR-5 ovarian
  GI50: 75 µg/mL and > 150 µg/mL
  TGI: 75 µg/mL and > 150 µg/mL
UACC-257 melanoma
  GI50: 29.9 µg/mL and 25.1 µg/mL
  TGI: 75 µg/mL and 113 µg/mL
HOP-62 NSCLC
  GI50: 5.83 µg/mL and 5.96 µg/mL
  TGI: 75 µg/mL and > 150 µg/mL
UACC-62 melanoma
  GI50: 7.54 µg/mL and 18.6 µg/mL
  TGI: 27.8 µg/mL and 62 µg/mL
HS 578T breast
  GI50: 33.8 µg/mL (≈ 62.2 µM)
  TGI: 75 µg/mL
MCF7 breast
  GI50: 2.76 µg/mL and 10.7 µg/mL
  TGI: 75 µg/mL and > 150 µg/mL
OVCAR-4 ovarian
  GI50: 46.6 µg/mL and > 150 µg/mL
  TGI: 75 µg/mL and > 150 µg/mL
LOX IMVI melanoma
  GI50: 3.89 µg/mL and 19.5 µg/mL
  TGI: 75 µg/mL and > 150 µg/mL
PC-3 prostate
  GI50: 37.2 µg/mL and 52.2 µg/mL
  TGI: 75 µg/mL and > 150 µg/mL
HCT-15 colon
  GI50: 75 µg/mL and > 150 µg/mL
  TGI: 75 µg/mL and > 150 µg/mL
K-562 leukemia
  GI50: 9.4 µg/mL and 25.2 µg/mL
  TGI: 75 µg/mL and > 150 µg/mL
NCI-H226 lung
  GI50: 1.75 µg/mL and 7.36 µg/mL
  TGI: 12.6 µg/mL and 28.5 µg/mL
U251 CNS
  GI50: 2.22 µg/mL and 6.15 µg/mL
  TGI: 75 µg/mL and 44 µg/mL
SNB-19 CNS
  GI50: 2.04 µg/mL and 54.6 µg/mL
  TGI: 75 µg/mL and > 150 µg/mL
RXF 393 renal
  GI50: 13.3 µg/mL and > 150 µg/mL
  TGI: 75 µg/mL and > 150 µg/mL
SK-MEL-28 melanoma
  GI50: 33.8 µg/mL and 44.8 µg/mL
  TGI: 75 µg/mL and > 150 µg/mL
OVCAR-3 ovarian
  GI50: 22.6 µg/mL and 35.8 µg/mL
  TGI: 75 µg/mL and > 150 µg/mL
ACHN renal
  GI50: 20.2 µg/mL and 12.2 µg/mL
  TGI: 75 µg/mL and > 150 µg/mL
SR leukemia
  GI50: 0.465 µg/mL and 1.18 µg/mL
  TGI: 7.2 µg/mL and 6.76 µg/mL
HCC-2998 colon
  GI50: 37.2 µg/mL and 26 µg/mL
  TGI: 75 µg/mL and 122 µg/mL
HL-60(TB) leukemia
  GI50: 2.84 µg/mL and 26.4 µg/mL
  TGI: 75 µg/mL and > 150 µg/mL
A549 NSCLC
  GI50: 4.17 µg/mL and 22.6 µg/mL
  TGI: 75 µg/mL and > 150 µg/mL
UO-31 renal
  GI50: 59 µg/mL and > 150 µg/mL
  TGI: 75 µg/mL and > 150 µg/mL
BT-549 breast
  GI50: 34.6 µg/mL and 108 µg/mL
  TGI: 75 µg/mL and > 150 µg/mL
TK-10 renal
  GI50: 75 µg/mL and 30 µg/mL
  TGI: 75 µg/mL and > 150 µg/mL
MALME-3M melanoma
  GI50: 10 µg/mL and 81.4 µg/mL
  TGI: 75 µg/mL and > 150 µg/mL
SF-295 CNS
  GI50: 18.6 µg/mL and 14.3 µg/mL
  TGI: 75 µg/mL and 116 µg/mL
IGROV1 ovarian
  GI50: 16.1 µg/mL and 60.1 µg/mL
  TGI: 75 µg/mL and > 150 µg/mL
SK-MEL-5 melanoma
  GI50: 4.76 µg/mL and 15.7 µg/mL
  TGI: 23.4 µg/mL and 44.8 µg/mL
CCRF-CEM leukemia
  GI50: 0.801 µg/mL and 4.97 µg/mL
RPMI-8226 leukemia
  GI50: 7.24 µg/mL and 13.2 µg/mL
  TGI: 75 µg/mL and 112 µg/mL
M14 melanoma
  GI50: 9.35 µg/mL and 48.5 µg/mL
  TGI: 75 µg/mL and > 150 µg/mL
HT29 colon
  GI50: 15.7 µg/mL and 49.5 µg/mL
  TGI: 75 µg/mL and > 150 µg/mL
SN12C renal
  GI50: 14.4 µg/mL and 13 µg/mL
  TGI: 75 µg/mL and > 150 µg/mL
SF-268 CNS
  GI50: 7.5 µg/mL (≈ 13.8 µM)
  TGI: 75 µg/mL
KM12 colon
  GI50: 16.9 µg/mL and 54.4 µg/mL
  TGI: 75 µg/mL and > 150 µg/mL
MDA-MB-435
  GI50: 8.56 µg/mL and 67 µg/mL
  TGI: 75 µg/mL and > 150 µg/mL
SNB-75 CNS
  GI50: 9.12 µg/mL and 51.1 µg/mL
  TGI: 55 µg/mL and > 150 µg/mL
SK-OV-3 ovarian
  GI50: 22.6 µg/mL and 14.9 µg/mL
  TGI: 75 µg/mL and 143 µg/mL
A498 renal
  GI50: 19 µg/mL and 33.8 µg/mL
  TGI: 75 µg/mL and > 150 µg/mL
NCI-H460 lung
  GI50: 0.709 µg/mL and 0.986 µg/mL
  TGI: 75 µg/mL and 27.3 µg/mL
HOP-92 NSCLC
  GI50: 23.9 µg/mL and 7.86 µg/mL
  TGI: 75 µg/mL and 127 µg/mL
OVCAR-8 ovarian
  GI50: 19.5 µg/mL and 45.7 µg/mL
  TGI: 75 µg/mL and > 150 µg/mL
